From patent US8969294B2 (Istituto di Recerche di Biologia Molecolare P. Angeletti …, priority 2008, dated 2015)
Numbered stars: 1 amine (or outer) side, 2 acyl side, 3 side chain; on linkers, the order of the positions; unused ones are H or OH. Square brackets hold non-standard residues; d marks the D form. Side chains are listed from the residue outwards. Ends that are not written are not given here. Peptide text beside a SMILES is read from it. * marks the point of attachment. γGlu = O=C(O)[C@H](CCC(=O)[*:2])N[*:1]; Palmitoyl = CCCCCCCCCCCCCCCC(=O)*; Aib = CC(C)(N)C(=O)O

Experiments:
[1] = biological target: GLP-1 receptor (Homo sapiens, UniProt P43220); assay: Functional assay, cAMP synthesis: luciferase reporter in HEK293 cells co-transfected with GLP-1 receptor
Procedure: (§1) Peptide absorbance readings were obtained from UV Absorbance measurements at 280 nm on a Genesys 6 Spectrophotometer (Thermo Electron Corporation). Beer's Law was used to calculate solution concentrations based on the number of tryptophan and tyrosine residues in each analog. At the end of the incubation, 100 μL LucLite luminescence substrate reagent was added to each well, the plate sealed and shaken, and placed into a Wallac Trilux luminescence counter for cAMP detection.
(§2) HEK293 cells were co-transfected with the GcgR or GLP-1R cDNAs and a luciferase reporter gene-linked to a cAMP response element (CRE). […] The plate was incubated for 10 min in the dark and light output was quantified on a MicroBeta1450 liquid scintillation counter (Perkin-Elmer, Wellesley, Mass.).

[2] = biological target: glucagon receptor (Homo sapiens, UniProt P47871); assay: Functional assay, cAMP synthesis: luciferase reporter in HEK293 cells co-transfected with glucagon receptor
Procedure: as §1, §2

[3] = Circular dichroism, percent helicity
[4] = Diet-induced obese C57B6 mice, s.c. Peptide X-PEG / Y-PEG (Examples 45-49); format: in vivo
Procedure: C57BI/6 mice were obtained from Jackson Laboratories and fed a diabetogenic diet from Research Diets, a high sucrose diet with 58% kcal from fat. Mice were single or group-housed on a 12:12-h light-dark cycle at 22° C. with free access to food and water. All studies were approved by and performed according to the guidelines of the Institutional Animal Care and Use Committee of the University of Cincinnati.
Whole body composition (fat and lean mass) was measured using NMR technology (EchoMRI, Houston, Tex.).
Energy intake and expenditure, as well as home-cage activity, were assessed by using a combined indirect calorimetry system (TSE Systems, Bad Homburg, Germany). Oxygen consumption and CO2 production were measured every 45 min for a total of 120 h (including 12 h of adaptation) to determine the respiratory quotient and energy expenditure. Food and water intake and meal patterns were determined continuously for 120 h at the same time as the indirect calorimetry assessments by integration of scales into the sealed cage environment. Meals were defined as food intake events with a minimum duration of 60 s, and a break of 300 s between food intake events. Home-cage locomotor activity was determined using a multidimensional infrared light beam system with beams scanning the bottom and top levels of the cage, and activity being expressed as beam breaks. Stationary motor activity (fidgeting) was defined as consecutive breaks of one single light beam at cage-bottom level, ambulatory movement as breaks of any two different light beams at cage-bottom level, and rearing as simultaneous breaks of light beams on both cage-bottom and the top level.
Blood was collected after a 6-h fast from tail veins using EDTA-coated Microvette tubes (Sarstedt, Nuremberg, Germany) and immediately chilled on ice. After 15 min of centrifugation at 3,000 g and 4° C., plasma was stored at −80° C. Plasma insulin was quantified by a radioimmunoassay from Linco (Sensitive Rat Insulin RIA; Linco Research, St. Charles, Mo.). Plasma TGs and cholesterol levels were measured by enzymatic assay kits (Thermo Electron, Waltham, Mass.). Samples were analyzed individually with the exception that pooled samples (0.25 ml) from 5 animals/group were subjected to fast-performance liquid chromatography (FPLC) gel filtration on two Superose 6 columns connected in series for lipoprotein separation. All assays were performed according to the manufacturer's instructions.
For the determination of glucose tolerance, mice were subjected to 6 h of fasting and injected intraperitoneally (i.p.) with 2 g glucose/kg body wt (50% D-glucose (Sigma) in 0.9% saline) for the glucose tolerance test (GTT). Tail blood glucose levels (mg/dl) were measured by using a hand-held glucometer (TheraSense Freestyle) before (0 min) and at 15, 30, 60, 90, and 120 min after injection.
The 40-kd pegylated peptides Peptides X-PEG and Y-PEG were used as single weekly subcutaneous (s.c) injections in diet-induced obese (D10) C57B6 mice.
Long-term effects of these lower doses on food intake (p=0.95; FIG. 29C) were less impressive than short-term effects with a higher dose (FIG. 27C).

[5] = Diet-induced obese rats, once-a-week injection, 3-week treatment; format: in vivo; conditions: 70 nmol/kg/week, 3 weeks
Procedure: To determine if the principal phenomenon generalizes across species, both compounds were administered to diet-induced obese rats (mean weight 777.4+/−2.1 g, dose 70 nmol/kg/week, once-a-week injection, 3-week treatment).

[6] = GLP-1 receptor knock out (GLP-1R−/−) mice on high-fat diet, one month; format: in vivo
[7] = Glucose challenge in DIO mice after i.p. peptide (Examples 24, 25); format: in vivo; conditions: 2, 20, 70 nmol/kg i.p.
Procedure: Diet-induced obesity (DIO) mice were injected intraperitoneally at the −15 min time point with 0.2, 2, 20, or 70 nmol/kg of one of the following:
A saline solution comprising 25% (v/v) glucose was injected at a dose of 1.5 g/kg of body weight at the 0 min time point. Blood glucose levels were measured at the −15, 0, 15, 30, 60, and 120 min time points.
DIO mice were injected intraperitoneally at the −24 hr time point with 70 nmol/kg of one of the following:
A saline solution comprising 25% (v/v) glucose was injected at a dose of 1.5 g/kg of body weight at the 0 min time point. Blood glucose levels were measured at the 0, 15, 30, 60, and 120 min time points.

[8] = DIO mice, i.p. once a week for 2 weeks (Example 30); format: in vivo; conditions: for blood glucose levels in response to a glucose injection: glucose 24 hours after peptide
Procedure: Changes in body weight of and food intake by the mice were measured 0, 1, 3, 5, 7, 8, 10, 12, and 14 days after injection. Blood glucose levels of the mice were monitored throughout the 14 days. Glucose tolerance tests were performed by injecting a 25% glucose in saline solution 1 hour or 24 hours after administration of the acylated or pegylated peptide and measuring blood glucose levels at −60, 0, 15, 30, 60, or 120 min after the glucose injection.

[9] = DIO mice, s.c. daily for seven days (Example 32); format: in vivo
Text: The acylated glucagon analogs were as follows:

[10] = EC50 at Glucagon Receptor, Table 31

Sequence of GLP-1 receptor (P43220 24-463, species assumed): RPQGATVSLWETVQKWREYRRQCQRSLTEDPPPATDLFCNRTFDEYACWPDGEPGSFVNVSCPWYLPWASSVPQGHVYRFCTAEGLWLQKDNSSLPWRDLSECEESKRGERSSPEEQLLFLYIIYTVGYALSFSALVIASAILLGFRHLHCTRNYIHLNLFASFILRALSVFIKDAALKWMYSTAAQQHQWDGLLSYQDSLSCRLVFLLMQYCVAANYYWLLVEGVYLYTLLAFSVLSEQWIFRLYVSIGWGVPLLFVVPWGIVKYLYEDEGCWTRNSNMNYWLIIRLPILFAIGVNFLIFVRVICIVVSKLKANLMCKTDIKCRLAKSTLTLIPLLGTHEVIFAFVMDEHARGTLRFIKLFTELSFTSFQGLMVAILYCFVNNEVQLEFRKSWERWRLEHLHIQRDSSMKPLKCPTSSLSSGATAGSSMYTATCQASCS
Sequence of glucagon receptor (P47871 26-477): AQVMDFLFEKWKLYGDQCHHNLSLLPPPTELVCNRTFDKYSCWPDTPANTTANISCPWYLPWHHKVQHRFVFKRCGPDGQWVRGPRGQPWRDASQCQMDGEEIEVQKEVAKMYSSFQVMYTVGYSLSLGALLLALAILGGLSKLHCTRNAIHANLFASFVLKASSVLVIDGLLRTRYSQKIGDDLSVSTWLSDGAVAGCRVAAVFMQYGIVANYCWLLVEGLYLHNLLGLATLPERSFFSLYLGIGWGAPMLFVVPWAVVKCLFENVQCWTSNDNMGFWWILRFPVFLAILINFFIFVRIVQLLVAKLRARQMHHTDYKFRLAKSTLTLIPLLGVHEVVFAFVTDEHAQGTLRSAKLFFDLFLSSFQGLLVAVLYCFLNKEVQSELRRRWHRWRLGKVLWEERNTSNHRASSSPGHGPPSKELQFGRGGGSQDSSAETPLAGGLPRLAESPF

Q: With CCCCCCCCCCCCCC(=O)NCCCC[C@H](NC(=O)[C@H](CC(=O)O)NC(=O)[C@H](CO)NC(=O)[C@@H](NC(=O)[C@H](Cc1ccccc1)NC(=O)[C@@H](NC(=O)CNC(=O)[C@H](CCC(N)=O)NC(=O)[C@H](CO)NC(=O)C(C)(C)c1c[nH]cn1)[C@@H](C)O)[C@@H](C)O)C(=O)N[C@@H](CO)C(=O)N[C@@H](CCCCN)C(=O)N[C@@H](Cc1ccc(O)cc1)C(=O)N[C@@H](CC(C)C)C(=O)N[C@@H](CC(=O)O)C(=O)N[C@H]1CCC(=O)NCCCC[C@@H](C(=O)N[C@@H](CC(=O)O)C(=O)N[C@@H](Cc2ccccc2)C(=O)N[C@H](C(=O)N[C@@H](CCC(N)=O)C(=O)N[C@@H](Cc2c[nH]c3ccccc23)C(=O)N[C@@H](CC(C)C)C(=O)N[C@@H](CCSC)C(=O)N[C@@H](CC(N)=O)C(=O)N[C@H](C(N)=O)[C@@H](C)O)C(C)C)NC(=O)[C@H](C)NC(=O)[C@H](CCCNC(=N)N)NC(=O)[C@H](CCCNC(=N)N)NC1=O [DMIA1, K10(C14), [E16/K20]-Gluc Amide] as the compound, how does the “% Activity of GLP-1” value [1] read?
A: 30%

Q: What about the “% Activity of Glucagon” value ([2]; Table 21) of the same compound?
A: 203.7%

Q: Which results are given for CSCC[C@H](NC(=O)[C@H](CC(C)C)NC(=O)[C@H](Cc1c[nH]c2ccccc12)NC(=O)[C@H](CCC(N)=O)NC(=O)[C@@H](NC(=O)[C@H](Cc1ccccc1)NC(=O)[C@H](CC(=O)O)NC(=O)[C@H](CCCCN)NC(=O)[C@H](C)NC(=O)[C@H](CCCNC(=N)N)NC(=O)[C@H](CCCNC(=N)N)NC(=O)[C@H](CCC(=O)O)NC(=O)[C@H](CC(=O)O)NC(=O)[C@H](CC(C)C)NC(=O)[C@H](Cc1ccc(O)cc1)NC(=O)[C@H](CCCCN)NC(=O)[C@H](CO)NC(=O)[C@H](Cc1ccc(O)cc1)NC(=O)[C@H](CC(=O)O)NC(=O)[C@H](CO)NC(=O)[C@@H](NC(=O)[C@H](Cc1ccccc1)NC(=O)[C@@H](NC(=O)CNC(=O)[C@H](CCC(N)=O)NC(=O)[C@H](CO)NC(=O)[C@@H](N)Cc1c[nH]cn1)[C@@H](C)O)[C@@H](C)O)C(C)C)C(=O)N[C@@H](CC(N)=O)C(=O)N[C@H](C(N)=O)[C@@H](C)O [E16, K20 Gluc-NH2, HSQGTFTSDYSKYLDERRAKDFVQW LMNTa]?
A: Percent Potency Relative to Native Ligand, GLP-1Rec ([1]; Table 5): 41.5%; Percent Potency Relative to Native Ligand, GLP-1Rec ([1]; Table 9): 41.5%; EC50 ([2]; EC50, Glucagon Receptor, Table 13): 0.18 nM; EC50 ([2]; EC50 at Glucagon Receptor, Table 17): 0.203 nM; Percent Potency Relative to Native Ligand, GRec ([2]; Table 5): 130.1%; Percent Potency Relative to Native Ligand, GRec ([2]; Table 9): 130.1%

Q: For CCCCCCCCCCCCCCCC(=O)N[C@@H](CCC(=O)N[C@@H](CCC(=O)NCCCC[C@H](NC(=O)[C@H](CC(=O)O)NC(=O)[C@H](CO)NC(=O)[C@@H](NC(=O)[C@H](Cc1ccccc1)NC(=O)[C@@H](NC(=O)CNC(=O)[C@H](CCC(N)=O)NC(=O)C(C)(C)NC(=O)[C@@H](N)Cc1c[nH]cn1)[C@@H](C)O)[C@@H](C)O)C(=O)N[C@@H](CO)C(=O)N[C@@H](CCCCN)C(=O)N[C@@H](Cc1ccc(O)cc1)C(=O)N[C@@H](CC(C)C)C(=O)N[C@@H](CC(=O)O)C(=O)NC(C)(C)C(=O)N[C@@H](CCCNC(=N)N)C(=O)N[C@@H](C)C(=O)N[C@@H](C)C(=O)N[C@@H](CCC(N)=O)C(=O)N[C@@H](CC(=O)O)C(=O)N[C@@H](Cc1ccccc1)C(=O)N[C@H](C(=O)N[C@@H](CCC(N)=O)C(=O)N[C@@H](Cc1c[nH]c2ccccc12)C(=O)N[C@@H](CC(C)C)C(=O)N[C@@H](CCSC)C(=O)N[C@@H](CC(=O)O)C(=O)N[C@H](C(N)=O)[C@@H](C)O)C(C)C)C(=O)O)C(=O)O [compound 655] (H-H[Aib]QGTFTSDK([γGlu-γGlu-Palmitoyl])SKYLD[Aib]RAAQDFVQWLMDT-NH2; N-terminus assumed), which EC50 [2, 10] is on record?
A: 0.003 nM

Q: With CCCCCCCCCCCCCCCC(=O)N[C@@H](CCC(=O)NCCCC[C@H](NC(=O)[C@H](CC(=O)O)NC(=O)[C@H](CO)NC(=O)[C@@H](NC(=O)[C@H](Cc1ccccc1)NC(=O)[C@@H](NC(=O)CNC(=O)[C@H](CCC(N)=O)NC(=O)C(C)(C)NC(=O)[C@@H](N)Cc1cnc[nH]1)[C@@H](C)O)[C@@H](C)O)C(=O)N[C@@H](CO)C(=O)N[C@@H](CCCCN)C(=O)N[C@@H](Cc1ccc(O)cc1)C(=O)N[C@@H](CC(C)C)C(=O)N[C@@H](CC(=O)O)C(=O)NC(C)(C)C(=O)N[C@@H](CCCNC(=N)N)C(=O)N[C@@H](C)C(=O)N[C@@H](C)C(=O)N[C@@H](CCC(N)=O)C(=O)N[C@@H](CC(=O)O)C(=O)N[C@@H](Cc1ccccc1)C(=O)N[C@H](C(=O)N[C@@H](CCC(N)=O)C(=O)N[C@@H](Cc1c[nH]c2ccccc12)C(=O)N[C@@H](CC(C)C)C(=O)N[C@@H](CCSC)C(=O)N[C@@H](CC(=O)O)C(=O)N[C@H](C(N)=O)[C@@H](C)O)C(C)C)C(=O)O [compound 656] as the compound, how does the EC50 [2, 10] read?
A: 0.006 nM

Q: Which “Percent Helicity, 0% TFE” value ([3]; 10 mM phosphate buffer pH 5.9, 0% TFE) does the source give for GLP-1 here?
A: 14%

Q: What about the “Percent Helicity, 10% TFE” value ([3]; 10% TFE) of the same compound?
A: 29%

Q: What about the “Percent Helicity, 20% TFE” value ([3]; 20% TFE) of the same compound?
A: 55%

Q: Which total cholesterol ([4]; 70 nmol/kg s.c. Days 0 and 7, evaluated Day 9) does the source give for “H(Aib)QGTFTSDYSKYLDEQAAKEFICWLMNT-amide [Peptide Y-PEG]” here?
A: 63.0 mg/dL

Q: What about the “blood glucose profile (AUC), i.p. glucose challenge” value ([4]; Day 3) of the same compound?
A: 14183±1072

Q: And the “Blood glucose levels, mean decrease” value ([4]; weekly s.c. 70 nmol/kg, from Day 3)?
A: −32%

Q: And the “decrease in body weight” value ([4]; weekly s.c. 70 nmol/kg, one month)?
A: 28.1%

Q: And the “change in body weight” value [5]?
A: −20.58+/−2.26%

Q: What about the “change in fat mass” value [5] of the same compound?
A: −33.76+/−4.76%

Q: What about the body weight [6] of the same compound?
A: significant decrease in body weight

Q: And the fat mass [6]?
A: significant decrease

Q: What does the source list for “Peptide A K^10—C8: Chimera 2 with AIB2, Lys10 acylated with C8 fatty acid, Cys24 40K PEG (H[Aib]QGTFTSDK(C8 fatty acid)SKYLDEQAAKEFIC(PEG 40 kDa)WLMNT-NH2)”?
A: ability to lower blood glucose, glucose challenge 15 min after peptide [7]: greatest ability to lower blood glucose; blood glucose levels in response to a glucose injection [8]: lowered in comparison to vehicle control

Q: With “Peptide A K^10—C14: Peptide A of Example 20 with Lys10 acylated with a C14 fatty acid chain (H[Aib]QGTFTSDK(C14 fatty acid)SKYLDEQAAKEFIC(PEG 40 kDa)WLMNT-NH2)” as the compound, how does the total body weight ([8]; 40 or 80 nmol/kg, 14 days) read?
A: reduced as compared to mice injected with the vehicle control

Q: And the “blood glucose levels in response to a glucose injection” value [8]?
A: lowered in comparison to vehicle control

Q: Which “fat mass on Day 7” value ([9]; 100 nmol/kg) does the source give for “γE-γE-C16 Glucagon Amide: C16 Glucagon Amide with C16 attached to Lys10 through gamma-Glu-gamma-Glu dipeptide spacer” here?
A: lowest fat mass

Q: And the “ability to cause weight loss” value ([9]; 30 or 100 nmol/kg daily s.c.)?
A: greatest ability to cause weight loss

Q: And the “decrease of blood glucose levels” value ([9]; higher dose)?
A: worked as well as Liraglutide
